Patent publication US9090615B2, “Adamantyl derivatives as cannabinoid receptor 2 agonists” (Hoffmann-La Roche Inc., priority 2012, dated 2015)
Like-named read-outs stand apart in the source and are kept apart here.

Key:
human CB2 receptors = target: T1, human CB2 receptors (Homo sapiens, UniProt P34972); assay: functional cAMP assay, CHO cells expressing human CB2; type: cell-based
T1 construct: expressed in transfected cells; host or cells: CHO cells
Description: The growth medium was exchanged with Krebs Ringer Bicarbonate buffer with 1 mM IBMX and incubated at 30° C. for 30 min. Compounds were added to a final assay volume of 100 μl and incubated for 30 min at 30° C. […] The time-resolved energy transfer is measured by a TRF reader (Evotec Technologies GmbH), equipped with a ND:YAG laser as excitation source. The plate is measured twice with the excitation at 355 nm and at the emission with a delay of 100 ns and a gate of 100 ns, total exposure time 10 s at 730 (bandwidth 30 nm) or 645 nm (bandwidth 75 nm), respectively.
EC50 values were determined using Activity Base analysis (ID Business Solution, Limited).

human CB1 receptors = target: T2, human CB1 receptors (Homo sapiens, UniProt P21554); assay: functional cAMP assay, CHO cells expressing human CB1; type: cell-based
T2 construct: expressed in transfected cells; host or cells: CHO cells
Description: CHO cells expressing human CB1 or CB2 receptors are seeded 17-24 hours prior to the experiment 50.000 cells per well in a black 96 well plate with flat clear bottom (Corning Costar #3904) in DMEM (Invitrogen No. 31331), 1×HT supplement, with 10% fetal calf serum and incubated at 5% CO2 and 37° C. in a humidified incubator. The growth medium was exchanged with Krebs Ringer Bicarbonate buffer with 1 mM IBMX and incubated at 30° C. for 30 min. Compounds were added to a final assay volume of 100 μl and incubated for 30 min at 30° C. Using the cAMP-Nano-TRF detection kit the assay (Roche Diagnostics) was stopped by the addition of 50 μl lysis reagent (Tris, NaCl, 1.5% Triton X100, 2.5% NP40, 10% NaN3) and 50 μl detection solutions (20 μM mAb Alexa700-cAMP 1:1, and 48 μM Ruthenium-2-AHA-cAMP) and shaken for 2 h at room temperature. The time-resolved energy transfer is measured by a TRF reader (Evotec Technologies GmbH), equipped with a ND:YAG laser as excitation source. The plate is measured twice with the excitation at 355 nm and at the emission with a delay of 100 ns and a gate of 100 ns, total exposure time 10 s at 730 (bandwidth 30 nm) or 645 nm (bandwidth 75 nm), respectively. The FRET signal is calculated as follows: FRET=T730-Alexa730-P(T645-B645) with P=Ru730-B730/Ru645-B645, where T730 is the test well measured at 730 nM, T645 is the test well measured at 645 nm, B730 and B645 are the buffer controls at 730 nm and 645 nm, respectively. cAMP content is determined from the function of a standard curve spanning from 10 μM to 0.1 nM cAMP.
EC50 values were determined using Activity Base analysis (ID Business Solution, Limited). The EC50 values for a wide range of cannabinoid agonists generated from this assay were in agreement with the values published in the scientific literature.

[1] = CHO cells expressing human CB2, read-out: Ec50:CB2 - hu cAMP
[2] = CHO cells expressing human CB1, read-out: Ec50:CB1 - hu cAMP

T1 sequence (P34972 whole entry): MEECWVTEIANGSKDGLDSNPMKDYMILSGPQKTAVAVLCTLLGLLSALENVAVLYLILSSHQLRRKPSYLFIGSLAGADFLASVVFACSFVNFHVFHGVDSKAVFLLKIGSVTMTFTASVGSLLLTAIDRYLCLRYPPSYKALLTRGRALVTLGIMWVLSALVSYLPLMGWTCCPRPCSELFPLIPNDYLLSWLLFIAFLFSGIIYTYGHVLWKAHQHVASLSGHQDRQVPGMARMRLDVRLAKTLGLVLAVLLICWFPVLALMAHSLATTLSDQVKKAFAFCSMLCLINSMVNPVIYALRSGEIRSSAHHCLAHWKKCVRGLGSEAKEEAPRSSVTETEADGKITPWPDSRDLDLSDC
T2 sequence (P21554 whole entry): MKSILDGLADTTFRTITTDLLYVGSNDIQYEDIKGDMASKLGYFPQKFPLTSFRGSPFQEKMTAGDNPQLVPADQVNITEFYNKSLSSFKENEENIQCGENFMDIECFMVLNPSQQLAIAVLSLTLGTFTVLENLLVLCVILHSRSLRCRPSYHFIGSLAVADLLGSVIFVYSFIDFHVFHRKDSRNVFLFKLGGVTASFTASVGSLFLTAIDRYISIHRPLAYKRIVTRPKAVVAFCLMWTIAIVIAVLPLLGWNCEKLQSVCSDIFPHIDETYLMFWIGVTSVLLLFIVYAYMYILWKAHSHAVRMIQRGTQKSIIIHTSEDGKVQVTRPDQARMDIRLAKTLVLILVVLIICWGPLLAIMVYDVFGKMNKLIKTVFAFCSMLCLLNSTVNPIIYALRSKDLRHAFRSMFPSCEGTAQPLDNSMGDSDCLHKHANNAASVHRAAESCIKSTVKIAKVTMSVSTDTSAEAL

Structure (SMILES) | EC50 (human CB2 receptors; [1]) [nM] | EC50 (human CB1 receptors; [2]) [nM] | EC50 (human CB2 receptors) [nM] | EC50 (human CB1 receptors) [nM]
O=C(N1CCc2ccccc2C1)C12CC3CC(CC(C3)C1)C2 [Example 1, Adamantan-1-yl-(3,4-dihydro-1H-isoquinolin-2-yl)-methanone] | 69.4 | > 10000 |  | 
O=C(N1CCCc2ccccc21)C12CC3CC(CC(C3)C1)C2 [Example 2, Adamantan-1-yl-(3,4-dihydro-2H-quinolin-1-yl)-methanone] | 71.6 |  |  | 
O=C1CCN(C(=O)C23CC4CC(CC(C4)C2)C3)c2ccccc21 [Example 3, 1-(Adamantane-1-carbonyl)-2,3-dihydro-1H-quinolin-4-one] | 330 | > 10000 |  | 
CC(C)(C)NC(=O)C1CCN(C(=O)C23CC4CC(CC(C4)C2)C3)c2ccccc21 (stereo not drawn) [Example 4, 1-(Adamantane-1-carbonyl)-1,2,3,4-tetrahydro-quinoline-4-carboxylic acid tert-butylamide] | 445 | > 10000 |  | 
COC(=O)C1Cc2ccccc2N(C(=O)C23CC4CC(CC(C4)C2)C3)C1 (stereo not drawn) [Example 5, 1-(Adamantane-1-carbonyl)-1,2,3,4-tetrahydro-quinoline-3-carboxylic acid methyl ester] | 221 | > 10000 |  | 
CC(C)C1(CO)CCN(C(=O)C23CC4CC(CC(C4)C2)C3)c2ccccc21 (stereo not drawn) [Example 6, Adamantan-1-yl-(4-hydroxymethyl-4-isopropyl-3,4-dihydro-2H-quinolin-1-yl)-methanone] | 400 | > 10000 |  | 
O=C(N1CCOc2ccccc21)C12CC3CC(CC(C3)C1)C2 [Example 7, Adamantan-1-yl-(2,3-dihydro-benzo[1,4]oxazin-4-yl)-methanone] | 180 | > 10000 |  | 
Cc1cccc2c1N(C(=O)C13CC4CC(CC(C4)C1)C3)CCC2 [Example 8, Adamantan-1-yl-(8-methyl-3,4-dihydro-2H-quinolin-1-yl)-methanone] | 277 | > 10000 |  | 
O=C(N1CCC(O)c2ccccc21)C12CC3CC(CC(C3)C1)C2 (stereo not drawn) [Example 9, Adamantan-1-yl-(4-hydroxy-3,4-dihydro-2H-quinolin-1-yl)-methanone] | 265 | > 10000 |  | 
CC1Cc2ccccc2N1C(=O)C12CC3CC(CC(C3)C1)C2 (stereo not drawn) [Example 10, Adamantan-1-yl-(2-methyl-2,3-dihydro-indol-1-yl)-methanone] | 261 | > 10000 |  | 
O=C(N1CCc2ccccc21)C12CC3CC(CC(C3)C1)C2 [Example 11, Adamantan-1-yl-(2,3-dihydro-indol-1-yl)-methanone] | 23.2 |  |  | 
CCOC1CCN(C(=O)C23CC4CC(CC(C4)C2)C3)c2ccccc21 (stereo not drawn) [Example 12, Adamantan-1-yl-(4-ethoxy-3,4-dihydro-2H-quinolin-1-yl)-methanone] |  |  | 18.6 | 
O=C(N1CCc2ccc([N+](=O)[O-])cc21)C12CC3CC(CC(C3)C1)C2 [Example 13, Adamantan-1-yl-(6-nitro-2,3-dihydro-indol-1-yl)-methanone] |  |  | 19.4 | > 10000
O=C(N1CCc2cc([N+](=O)[O-])ccc21)C12CC3CC(CC(C3)C1)C2 [Example 14, Adamantan-1-yl-(5-nitro-2,3-dihydro-indol-1-yl)-methanone] | 82 | > 10000 |  | 
O=C(N1CCc2cc(Br)ccc21)C12CC3CC(CC(C3)C1)C2 [Example 15, Adamantan-1-yl-(5-bromo-2,3-dihydro-indol-1-yl)-methanone] |  |  | 11.5 | > 10000
O=C(N1CCc2c(F)cc(F)cc21)C12CC3CC(CC(C3)C1)C2 [Example 16, Adamantan-1-yl-(4,6-difluoro-2,3-dihydro-indol-1-yl)-methanone] |  |  | 54 | > 10000
O=C(N1CCc2ccc(C(F)(F)F)cc21)C12CC3CC(CC(C3)C1)C2 [Example 17, Adamantan-1-yl-(6-trifluoromethyl-2,3-dihydro-indol-1-yl)-methanone] |  |  | 14.6 | 
O=C(N1CCc2cc(F)ccc21)C12CC3CC(CC(C3)C1)C2 [Example 18, Adamantan-1-yl-(5-fluoro-2,3-dihydro-indol-1-yl)-methanone] | 4.6 |  |  | 

Structure (SMILES) | EC50 (human CB2 receptors; [1]) [nM] | EC50 (human CB1 receptors; [2]) [nM] | EC50 (human CB2 receptors) [nM] | EC50 (human CB1 receptors) [nM]
COC(=O)c1ccc2c(c1)CCN2C(=O)C12CC3CC(CC(C3)C1)C2 [Example 19, 1-(Adamantane-1-carbonyl)-2,3-dihydro-1H-indole-5-carboxylic acid methyl ester] | 70.6 | > 10000 |  | 
O=C(N1CCc2c1ccnc2Cl)C12CC3CC(CC(C3)C1)C2 [Example 20, Adamantan-1-yl-(4-chloro-2,3-dihydro-pyrrolo[3,2-c]pyridin-1-yl)-methanone] | 273 | > 10000 |  | 
O=C(N1Cc2ccccc2C1)C12CC3CC(CC(C3)C1)C2 [Example 21, Adamantan-1-yl-(1,3-dihydro-isoindol-2-yl)-methanone] | 19.9 |  |  | 
COc1cccc2c1N(C(=O)C13CC4CC(CC(C4)C1)C3)CC2 [Example 22, Adamantan-1-yl-(7-methoxy-2,3-dihydro-indol-1-yl)-methanone] |  |  | 26.4 | > 10000
CC1(C)CN(C(=O)C23C[C@H]4C[C@@H](C2)C[C@@H](C3)C4)c2ccccc21 [Example 23, Adamantan-1-yl-(3,3-dimethyl-2,3-dihydro-indol-1-yl)-methanone] |  |  | 15.9 | > 10000
COC(=O)c1cccc2c1CCN2C(=O)[C@]12C[C@H]3C[C@H](C[C@H](C3)C1)C2 [Example 24, 1-(Adamantane-1-carbonyl)-2,3-dihydro-1H-indole-4-carboxylic acid methyl ester] |  |  | 42.1 | > 10000
CC1c2ccccc2N(C(=O)C23C[C@H]4C[C@@H](C2)C[C@@H](C3)C4)C1C (stereo partly drawn) [Example 25, Adamantan-1-yl-(2,3-dimethyl-2,3-dihydro-indol-1-yl)-methanone] | 163 | > 10000 |  | 
Cc1ccc2c(c1)CCN2C(=O)C12CC3CC(CC(C3)C1)C2 [Example 26, Adamantan-1-yl-(5-methyl-2,3-dihydro-indol-1-yl)-methanone] | 10.4 | > 10000 |  | 
Cc1ccc2c(c1)N(C(=O)C13CC4CC(CC(C4)C1)C3)CC2 [Example 27, Adamantan-1-yl-(6-methyl-2,3-dihydro-indol-1-yl)-methanone] | 6.6 | > 10000 |  | 
Cc1cccc2c1N(C(=O)C13CC4CC(CC(C4)C1)C3)CC2 [Example 28, Adamantan-1-yl-(7-methyl-2,3-dihydro-indol-1-yl)-methanone] |  |  | 55.7 | 
COc1cccc2c1CCN2C(=O)C12CC3CC(CC(C3)C1)C2 [Example 29, Adamantan-1-yl-(4-methoxy-2,3-dihydro-indol-1-yl)-methanone] | 29.6 | > 10000 |  | 
Cc1cccc2c1CCN2C(=O)C12CC3CC(CC(C3)C1)C2 [Example 30, Adamantan-1-yl-(4-methyl-2,3-dihydro-indol-1-yl)-methanone] | 4.3 |  |  | 
CN1CCN(C(=O)C23C[C@H]4C[C@@H](C2)C[C@@H](C3)C4)c2ccccc21 [Example 31, Adamantan-1-yl-(4-methyl-3,4-dihydro-2H-quinoxalin-1-yl)-methanone] |  |  | 28.9 | > 10000
CC(C)N1CCN(C(=O)C23CC4CC(CC(C4)C2)C3)c2ccccc21 [Example 32, Adamantan-1-yl-(4-isopropyl-3,4-dihydro-2H-quinoxalin-1-yl)-methanone] |  |  | 6.2 | > 10000
COCCOC1CCN(C(=O)C23CC4CC(CC(C4)C2)C3)c2ccccc21 (stereo not drawn) [Example 33, Adamantan-1-yl-[4-(2-methoxy-ethoxy)-3,4-dihydro-2H-quinolin-1-yl]-methanone] |  |  | 21.3 | 
COC1CCN(C(=O)C23CC4CC(CC(C4)C2)C3)c2ccccc21 (stereo not drawn) [Example 36, Adamantan-1-yl-(4-methoxy-3,4-dihydro-2H-quinolin-1-yl)-methanone] | 27.2 |  |  | 
O=C(N1CCc2ccccc21)C12CC3CC(CC(O)(C3)C1)C2 [Example 41, (2,3-Dihydro-indol-1-yl)-(3-hydroxy-adamantan-1-yl)-methanone] | 492 |  |  | 
O=C(NC12CC3CC(CC(C3)C1)C2)N1Cc2ccccc2C1 [Example 42, 1,3-Dihydro-isoindole-2-carboxylic acid adamantan-1-ylamide] | 22.1 |  |  | 
